This is an account of results in PubChem BioAssay AID248 (DTP/NCI, 2004).

“And” between values parts separate entries of the source, which are not always exact repeats. Equal values may be shown once. Toxic doses and inconclusive results are not listed.

This assay concerns L1210 leukemia ip in BDF1 mice, survival T/C. Briefly: NCI In Vivo Anticancer Drug Screen. Data for tumor model L1210 Leukemia (intraperitoneal) in B6D2F1 (BDF1) mice. To be noted: endpoint: mean survival time, higher = longer survival. In outline: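 In this screen, tumor-bearing mice given compound are compared to those given vehicle, and their survival values are reported as a treated-to-control quotient.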

Setting [1] is: dose: 100.0 mg/kg/injection, schedule: Q01DX005 (ip), vehicle: saline.
Setting [2] is: dose: 200.0 mg/kg/injection, schedule: Q01DX005 (ip), vehicle: saline.
The mark [3] stands for this setting: dose: 100.0 mg/kg/injection, schedule: Q01DX001 (ip), vehicle: carboxymethylcellulose (CMC).
[4] abbreviates: dose: 200.0 mg/kg/injection, schedule: Q01DX001 (ip), vehicle: carboxymethylcellulose (CMC).
Setting [5] is: dose: 400.0 mg/kg/injection, schedule: Q01DX001 (ip), vehicle: carboxymethylcellulose (CMC).
The mark [6] stands for this setting: dose: 200.0 mg/kg/injection, schedule: Q01DX001 (ip), vehicle: saline with Tween-80.
[7] abbreviates: dose: 100.0 mg/kg/injection, schedule: Q01DX001 (ip), vehicle: saline.
The mark [8] stands for this setting: dose: 200.0 mg/kg/injection, schedule: Q01DX001 (ip), vehicle: saline.
The mark [9] stands for this setting: dose: 400.0 mg/kg/injection, schedule: Q01DX001 (ip), vehicle: saline.

As to `Nc1ncnc2c1ncn2C1OC(COP(=O)(O)O)C(O)C1OCc1ccccc1` (stereo not drawn), the T/C is 112 % of control under setting [1] and 95 % of control under setting [2].

Take `O=C(OCC1OC(n2c(=O)[nH]cc(F)c2=O)C(OC(=O)c2ccccc2)C1OC(=O)c1ccccc1)c1ccccc1` (stereo not drawn): the T/C reads like this: (dose: 12.5 mg/kg/injection, schedule: Q01DX005 (ip), vehicle: saline) 121 % of control; (dose: 20.0 mg/kg/injection, schedule: Q01DX005 (ip), vehicle: Klucel (hydroxypropylcellulose) (HPC)) 108 % of control; (dose: 25.0 mg/kg/injection, schedule: Q01DX005 (ip), vehicle: saline) 152 % of control; (dose: 50.0 mg/kg/injection, schedule: Q01DX005 (ip), vehicle: saline) 196 % of control and 206 % of control; (dose: 80.0 mg/kg/injection, schedule: Q01DX005 (ip), vehicle: Klucel (hydroxypropylcellulose) (HPC)) 209 % of control; under setting [1], 94 % of control. For the same compound, the T/C under setting [2] is 93 % of control and 92 % of control.

As for `COC(=O)/C=C(/Oc1cccc([N+](=O)[O-])c1)C(=O)OC`, the T/C was 105 % of control (dose: 75.0 mg/kg/injection, schedule: Q04DX003 (ip), vehicle: saline); 96 % of control (dose: 150.0 mg/kg/injection, schedule: Q04DX003 (ip), vehicle: saline); 98 % of control (dose: 300.0 mg/kg/injection, schedule: Q04DX003 (ip), vehicle: saline).

Take `Cc1nc(N)c2c(n1)C(C)N(C(=O)c1ccccc1)C2` (stereo not drawn): the T/C was 103 % of control under setting [3], 100 % of control under setting [4] and 97 % of control under setting [5].

As to `N#CC(C#N)=CN1CCOCC1`, the T/C by setting is: (dose: 100.0 mg/kg/injection, schedule: Q04DX002 (ip), vehicle: saline with Tween-80) 87 % of control; (dose: 200.0 mg/kg/injection, schedule: Q04DX002 (ip), vehicle: saline with Tween-80) 87 % of control.

As for `CC(C)(COC(=O)c1ccc(N)cc1)NC1CCCCC1`, the T/C (dose: 75.0 mg/kg/injection, schedule: Q01DX001 (ip), vehicle: saline) was 96 % of control.

On to `CCCCCCCCCCCCCC(=O)N(CCC)CCC`, for which the T/C is, setting by setting: under setting [3], 96 % of control; (dose: 100.0 mg/kg/injection, schedule: Q01DX009 (ip), vehicle: carboxymethylcellulose (CMC)) 94 % of control and 110 % of control; (dose: 100.0 mg/kg/injection, schedule: Q04DX003 (ip), vehicle: carboxymethylcellulose (CMC)) 95 % of control; under setting [4], 93 % of control; (dose: 200.0 mg/kg/injection, schedule: Q01DX009 (ip), vehicle: carboxymethylcellulose (CMC)) 98 % of control and 103 % of control; (dose: 200.0 mg/kg/injection, schedule: Q04DX003 (ip), vehicle: carboxymethylcellulose (CMC)) 95 % of control. The T/C by setting is: under setting [5], 91 % of control; (dose: 400.0 mg/kg/injection, schedule: Q04DX003 (ip), vehicle: carboxymethylcellulose (CMC)) 93 % of control.

On to `N#Cc1ccc(OCCCOc2ccccc2)cc1`, for which the T/C is, setting by setting: (dose: 100.0 mg/kg/injection, schedule: Q01DX001 (ip), vehicle: saline with Tween-80) 100 % of control; under setting [6], 102 % of control; (dose: 400.0 mg/kg/injection, schedule: Q01DX001 (ip), vehicle: saline with Tween-80) 93 % of control.

For `CCOC(=O)c1cc2ccccc2n1-c1ccccc1`, the T/C reads like this: (dose: 100.0 mg/kg/injection, schedule: Q01DX009 (ip), vehicle: saline with Tween-80) 111 % of control; (dose: 200.0 mg/kg/injection, schedule: Q01DX009 (ip), vehicle: saline with Tween-80) 104 % of control; (dose: 400.0 mg/kg/injection, schedule: Q01DX009 (ip), vehicle: saline with Tween-80) 104 % of control.

`NC(=S)NC(=S)Nc1ccccc1`: the T/C by setting is: (dose: 100.0 mg/kg/injection, schedule: Q04DX003 (ip), vehicle: Klucel (hydroxypropylcellulose) (HPC)) 103 % of control; (dose: 200.0 mg/kg/injection, schedule: Q04DX003 (ip), vehicle: Klucel (hydroxypropylcellulose) (HPC)) 110 % of control; (dose: 400.0 mg/kg/injection, schedule: Q04DX003 (ip), vehicle: Klucel (hydroxypropylcellulose) (HPC)) 106 % of control.

Take `CCSc1ncc(C)c(Cl)n1`: the T/C reads like this: (dose: 100.0 mg/kg/injection, schedule: Q01DX009 (ip), vehicle: water) 103 % of control; (dose: 100.0 mg/kg/injection, schedule: Q04DX003 (ip), vehicle: water) 100 % of control; (dose: 200.0 mg/kg/injection, schedule: Q01DX009 (ip), vehicle: water) 94 % of control; (dose: 200.0 mg/kg/injection, schedule: Q04DX003 (ip), vehicle: water) 108 % of control; (dose: 400.0 mg/kg/injection, schedule: Q01DX009 (ip), vehicle: water) 100 % of control; (dose: 400.0 mg/kg/injection, schedule: Q04DX003 (ip), vehicle: water) 100 % of control.

Regarding `Cc1ccccc1NC(=O)CI`, the T/C is 97 % of control (dose: 12.5 mg/kg/injection, schedule: Q01DX009 (ip), vehicle: Klucel (hydroxypropylcellulose) (HPC)); 103 % of control (dose: 25.0 mg/kg/injection, schedule: Q01DX009 (ip), vehicle: Klucel (hydroxypropylcellulose) (HPC)); 101 % of control (dose: 50.0 mg/kg/injection, schedule: Q01DX009 (ip), vehicle: Klucel (hydroxypropylcellulose) (HPC)).

As for `CCCC(C(CC)CNC(=O)Nc1cccc2ccccc12)N(C)C(=O)Nc1cccc2ccccc12` (stereo not drawn), the T/C was 109 % of control (dose: 50.0 mg/kg/injection, schedule: Q01DX001 (ip), vehicle: carboxymethylcellulose (CMC)); 102 % of control under setting [3]; 103 % of control under setting [4]; 96 % of control under setting [5].

For `O=C1C=C(c2ccccc2)CO1`, the T/C runs as follows: under setting [7], 104 % of control; under setting [8], 122 % of control; under setting [9], 98 % of control.

For the compound `Cc1ccc(N=Nc2ccc(C)cc2NC(=O)Nc2ccccc2F)cc1`, the T/C (dose: 100.0 mg/kg/injection, schedule: Q01DX009 (ip), vehicle: Klucel (hydroxypropylcellulose) (HPC)) was 104 % of control; the T/C (dose: 200.0 mg/kg/injection, schedule: Q01DX009 (ip), vehicle: Klucel (hydroxypropylcellulose) (HPC)) is 97 % of control; the T/C (dose: 400.0 mg/kg/injection, schedule: Q01DX009 (ip), vehicle: Klucel (hydroxypropylcellulose) (HPC)) was 88 % of control.

In the case of `Oc1cc[c]([Hg][Cl])cc1`, the T/C was 105 % of control (dose: 12.5 mg/kg/injection, schedule: Q04DX003 (ip), vehicle: Klucel (hydroxypropylcellulose) (HPC)); 111 % of control (dose: 25.0 mg/kg/injection, schedule: Q04DX003 (ip), vehicle: Klucel (hydroxypropylcellulose) (HPC)); 99 % of control (dose: 50.0 mg/kg/injection, schedule: Q04DX003 (ip), vehicle: Klucel (hydroxypropylcellulose) (HPC)).

Turning to `NC(CC(=O)N/C=N\O)C(=O)O` (stereo not drawn), the T/C was 98 % of control (dose: 50.0 mg/kg/injection, schedule: Q01DX001 (ip), vehicle: saline); 102 % of control under setting [7]; 104 % of control under setting [8]; 104 % of control under setting [9].

Take `BrC1=C(Br)C(Br)(Br)C(Br)=C1Br`: the T/C was 101 % of control (dose: 10.0 mg/kg/injection, schedule: Q01DX001 (ip), vehicle: saline) and 98 % of control (dose: 20.0 mg/kg/injection, schedule: Q01DX001 (ip), vehicle: saline).

`O=C1c2ccccc2C(=O)N1Cc1cccc(Nc2cc(=O)[nH]c(=O)[nH]2)c1`: the T/C under setting [6] was 95 % of control.

As for `CN1CN(C2CCCCC2)CSC1=S`, the T/C reads like this: (dose: 100.0 mg/kg/injection, schedule: Q01DX001 (ip), vehicle: acetone) 95 % of control; (dose: 100.0 mg/kg/injection, schedule: Q04DX003 (ip), vehicle: acetone) 101 % of control; (dose: 100.0 mg/kg/injection, schedule: Q04DX003 (ip), vehicle: saline) 101 % of control; (dose: 200.0 mg/kg/injection, schedule: Q01DX001 (ip), vehicle: acetone) 92 % of control; (dose: 200.0 mg/kg/injection, schedule: Q04DX003 (ip), vehicle: acetone) 106 % of control; (dose: 200.0 mg/kg/injection, schedule: Q04DX003 (ip), vehicle: saline) 102 % of control. In addition, the T/C was 100 % of control (dose: 400.0 mg/kg/injection, schedule: Q01DX001 (ip), vehicle: acetone); 94 % of control (dose: 400.0 mg/kg/injection, schedule: Q04DX003 (ip), vehicle: acetone); 98 % of control (dose: 400.0 mg/kg/injection, schedule: Q04DX003 (ip), vehicle: saline).
